Data as given in patent US11141452B2, “Bifunctional compounds for relief of pain comprising an opioid receptor agonist moiety and a NK1 receptor antagonist moiety and methods for treating pain” (THE ARIZONA BOARD OF REGENTS ON BEHALF OF THE UNIVERSITY OF …, priority 2014, dated 2021).
Where “and” joins values, the source holds several entries; their conditions need not be identical. Equal values may be shown once. Read-outs that look alike come from different tables or passages of the source. Non-standard residues stand in square brackets, D forms with d. Residues, ends and D or L forms follow the SMILES beside them. *: point of attachment. NH(3,5-(CF3)2-benzyl) = FC(F)(F)c1cc(CN*)cc(C(F)(F)F)c1; Phe(4-F) = N[C@@H](Cc1ccc(F)cc1)C(=O)O; Dmt = Cc1cc(O)cc(C)c1C[C@H](N)C(=O)O; NMeF = CN[C@@H](Cc1ccccc1)C(=O)O

How the values were obtained:
NK1R = target: T1, NK1R (Cavia porcellus, UniProt P30547); assay: GPI/LMMP functional assay at NK1R (agonist and antagonist testing); format: cell-based, guinea pig; conditions: for GPI/LMMP (NK1R) Agonist: agonist activity at the concentration in the cell
T1 construct: The longitudinal muscle with myenteric plexus (LMMP) was carefully separated from the circular muscle; from tissue; host or cells: guinea pig ileum longitudinal muscle with myenteric plexus

MOR [1] = assay: Radioligand binding assay at μ opioid receptor; conditions: for Log[IC50±] (μ): log IC50 ± error; for Ki^μ/Ki^δ: ratio of binding affinities MOR/DOR
Procedure: (§1) Binding affinities of these ligands were measured on radioligand binding assays. […] ([43]).

MOR [2] = assay: Guinea pig isolated ileum (GPI) functional assay; format: cell-based
DOR [3] = target: T2, DOR (Mus musculus, UniProt P32300); assay: Mouse isolated vas deferens (MVD) functional assay; format: cell-based
T2 construct: Male ICR mice under CO2 anesthesia were sacrificed by cervical dislocation and the vasa differentia removed; from tissue; host or cells: mouse vas deferens (ICR mice)

hNK1 = target: T3, hNK1 (Homo sapiens, UniProt P25103); assay: hNK1/CHO cell membrane radioligand binding assay ([3H]SP); conditions: for Ki: Ki^hNK1 (nM), hNK1/CHO membranes, [3H]SP; for Ki^hNK1/Ki^rNK1: ratio human/rat NK1
T3 construct: expressed in transfected cells; host or cells: CHO

DOR [4] = target: DOR (Homo sapiens, UniProt P41143); assay: Radioligand binding assay at δ opioid receptor; conditions: for Ki: Ki^δ (nM)
Procedure: as §1

in vitro = conditions: rat, plasma
[5] = system: rats (acute thermal pain, paw withdrawal reflex)
rNK1 = rNK1 (Rattus norvegicus, UniProt P14600); assay: Radioligand binding assay at rat NK1 receptor; conditions: Ki^rNK1 (nM)
Procedure: as §1

[6] = system: mice (acute thermal pain, tail flick); assay: Tail flick latency, 52° C. water bath, after intrathecal injection; format: in vivo, mouse
Procedure: Tail flick latencies were re-assessed at up to 8 time points after administration. […] Mice with baseline TFLs<3 s or >9 s were excluded from the study.
For both studies, maximal percent efficacy was calculated and expressed as: % Antinociception=100*(test latency after drug treatment−baseline latency)/(cutoff−baseline latency) Statistics: Between group data were analyzed by non-parametric two-way analysis of variance (ANOVA; post hoc. Neuman-Kuels) in FlashCalc (Dr. Michael H. Ossipov, University of Arizona, Tucson, Ariz., USA). Within group data were analyzed by non-parametric one-way analysis of variance (ANOVA; post hoc: Bonferroni) in FlashCalc (Dr. Michael H. Ossipov, University of Arizona, Tucson, Ariz., USA). Differences were considered to be significant if P≤0.05.

[7] = agonist activity, electrically stimulated tissue, read-out: GPI (MOR) IC50
[8] = MVD (DOR) IC50 (nM), agonist activity, electrically stimulated tissue
[9] = antagonist activity, read-out: GPI/LMMP (NK1R) Ke (nM) ± S.E.M.
[10] = GPI/LMMP (NK1R) Ke (nM) ± S.E.M., antagonist activity
[11] = head of Table IX, read-out: GPI (MOR) ID50

T1 sequence (P30547 whole entry): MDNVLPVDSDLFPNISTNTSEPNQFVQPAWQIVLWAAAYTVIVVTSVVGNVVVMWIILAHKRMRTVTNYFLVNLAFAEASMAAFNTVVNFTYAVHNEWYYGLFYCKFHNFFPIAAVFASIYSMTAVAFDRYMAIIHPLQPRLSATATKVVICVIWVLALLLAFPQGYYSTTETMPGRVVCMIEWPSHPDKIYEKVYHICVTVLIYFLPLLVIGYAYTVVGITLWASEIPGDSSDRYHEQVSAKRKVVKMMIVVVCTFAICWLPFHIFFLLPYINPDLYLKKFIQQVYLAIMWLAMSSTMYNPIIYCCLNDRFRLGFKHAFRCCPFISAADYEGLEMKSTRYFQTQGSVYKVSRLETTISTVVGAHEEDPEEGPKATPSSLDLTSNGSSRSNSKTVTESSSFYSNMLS
T2 sequence (P32300 whole entry): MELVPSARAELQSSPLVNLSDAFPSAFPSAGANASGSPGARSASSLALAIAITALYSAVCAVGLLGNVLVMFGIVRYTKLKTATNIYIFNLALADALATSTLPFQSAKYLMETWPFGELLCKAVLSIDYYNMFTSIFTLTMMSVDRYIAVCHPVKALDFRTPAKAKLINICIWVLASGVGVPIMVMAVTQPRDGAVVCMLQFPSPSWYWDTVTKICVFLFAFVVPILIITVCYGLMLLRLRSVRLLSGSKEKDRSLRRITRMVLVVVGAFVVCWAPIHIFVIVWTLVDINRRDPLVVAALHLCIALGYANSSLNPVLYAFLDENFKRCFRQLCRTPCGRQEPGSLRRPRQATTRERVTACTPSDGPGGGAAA
Sequence of rNK1 (P14600 whole entry): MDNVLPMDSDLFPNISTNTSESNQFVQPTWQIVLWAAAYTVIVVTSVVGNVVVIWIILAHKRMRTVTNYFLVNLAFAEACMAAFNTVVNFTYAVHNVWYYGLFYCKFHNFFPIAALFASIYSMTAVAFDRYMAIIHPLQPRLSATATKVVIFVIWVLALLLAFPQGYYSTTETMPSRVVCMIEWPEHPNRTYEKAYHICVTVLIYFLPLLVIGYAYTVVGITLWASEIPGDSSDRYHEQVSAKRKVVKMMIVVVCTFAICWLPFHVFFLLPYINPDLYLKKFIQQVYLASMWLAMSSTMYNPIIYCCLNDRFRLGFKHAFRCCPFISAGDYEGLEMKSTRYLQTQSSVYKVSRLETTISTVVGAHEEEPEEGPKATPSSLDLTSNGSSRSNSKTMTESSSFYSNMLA
T3 sequence (P25103 whole entry): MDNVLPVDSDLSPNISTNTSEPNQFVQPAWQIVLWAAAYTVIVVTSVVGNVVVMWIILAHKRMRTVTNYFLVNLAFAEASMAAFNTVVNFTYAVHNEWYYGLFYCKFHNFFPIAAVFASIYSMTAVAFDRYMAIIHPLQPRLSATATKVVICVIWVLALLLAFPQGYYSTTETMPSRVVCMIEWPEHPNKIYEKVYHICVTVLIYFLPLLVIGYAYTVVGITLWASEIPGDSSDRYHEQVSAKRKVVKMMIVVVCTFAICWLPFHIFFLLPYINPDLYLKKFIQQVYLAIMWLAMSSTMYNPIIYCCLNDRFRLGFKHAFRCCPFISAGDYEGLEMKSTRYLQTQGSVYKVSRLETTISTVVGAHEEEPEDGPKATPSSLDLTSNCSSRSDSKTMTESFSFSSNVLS
Sequence of DOR (Homo sapiens, UniProt P41143) (P41143 whole entry): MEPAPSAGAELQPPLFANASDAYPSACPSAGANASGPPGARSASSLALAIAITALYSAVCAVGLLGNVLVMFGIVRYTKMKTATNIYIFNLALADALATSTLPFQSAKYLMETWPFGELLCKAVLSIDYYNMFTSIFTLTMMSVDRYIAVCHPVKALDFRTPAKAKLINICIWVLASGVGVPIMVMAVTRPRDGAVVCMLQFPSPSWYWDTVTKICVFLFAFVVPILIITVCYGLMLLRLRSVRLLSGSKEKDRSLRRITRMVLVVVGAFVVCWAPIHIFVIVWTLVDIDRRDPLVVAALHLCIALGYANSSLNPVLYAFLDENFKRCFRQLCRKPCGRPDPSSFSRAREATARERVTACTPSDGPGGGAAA

Structure (SMILES): CC(C)C[C@H](NC(=O)[C@@H]1CCCN1C(=O)[C@H](Cc1ccc(F)cc1)NC(=O)CNC(=O)[C@@H](C)NC(=O)[C@@H](N)Cc1ccc(O)cc1)C(=O)N[C@@H](Cc1c[nH]c2ccccc12)C(=O)NCc1cc(C(F)(F)F)cc(C(F)(F)F)c1 [AKG190, H-Tyr-D-Ala-Gly-Phe(4-F)-Pro-Leu-Trp-NH-Bn(3′,5′-(CF3)2)]
- GPI/LMMP (NK1R) Agonist (NK1R): None at 30 nM
- Ki (MOR [1]): 4 nM
- Log[IC50±] (μ) (MOR [1]): −8.08 ± 0.10
- Ki^μ/Ki^δ (MOR [1]): 20/1
- IC50 (MOR [2]; [7]): 65 nM and 64.8 nM
- higher agonist activity at DOR compared to MOR (functional assays) (DOR [3]): 5 times
- IC50 (DOR [3]; [8]): 12.1 ± 4 nM
- Ki (hNK1): 5.61 ± 0.65 nM
- Ki^hNK1/Ki^rNK1 (hNK1): 1/6
- binding selectivity for DOR over MOR (DOR [4]): 20 times
- Ki (DOR [4]): 0.2 nM
- half-life (in vitro): < 2 h

Structure (SMILES): Cc1cc(O)cc(C)c1C[C@H](N)C(=O)N[C@H](C)C(=O)NCC(=O)N(C)[C@@H](Cc1ccccc1)C(=O)N1CCC[C@H]1C(=O)N[C@@H](CC(C)C)C(=O)N[C@@H](Cc1c[nH]c2ccccc12)C(=O)NCc1cc(C(F)(F)F)cc(C(F)(F)F)c1 [AKG115, H-Dmt-D-Ala-Gly-NMePhe-Pro-Leu-Trp-NH-Bn(3′,5′-(CF3)2)]
- Kb (NK1R; [9]): 9.7 nM
- Ki (MOR [1]): 1 nM
- Log[IC50±] (μ) (MOR [1]): −8.78 ± 0.05
- maximal level of antinociception ([5]; 0.1 μg i.t.): minimal
- motor skills ([5]; 10 μg in 5 μl): motor skills were impaired
- Paw withdrawal latencies (PWLs) ([5]; spinal 0.1 μg in 5 μL, 60 min after the injection): not significantly higher than vehicle-treated rats and baseline values
- IC50 (MOR [2]; [7]): 21 nM and 20.6 nM
- IC50 (DOR [3]; [8]): 30.7 ± 7.5 nM
- IC50 (DOR [4]): 12 nM
- half-life (in vitro): > 24 h

Structure (SMILES): Cc1cc(O)cc(C)c1C[C@H](N)C(=O)N[C@H](C)C(=O)NCC(=O)N[C@@H](Cc1ccc(F)cc1)C(=O)N1CCC[C@H]1C(=O)N[C@@H](CC(C)C)C(=O)N[C@@H](Cc1c[nH]c2ccccc12)C(=O)NCc1cc(C(F)(F)F)cc(C(F)(F)F)c1 [AKG127, H-Dmt-D-Ala-Gly-Phe(4-F)-Pro-Leu-Trp-NH-Bn(3′,5′-(CF3)2)]
- GPI/LMMP (NK1R) Agonist (NK1R): None at 30 nM
- Kb (NK1R; [9]): 5.3 nM
- Ki (MOR [1]): 1 nM
- Log[IC50±] (μ) (MOR [1]): −8.72 ± 0.08
- Ki^μ/Ki^δ (MOR [1]): 1/1
- Ki (rNK1): 29.4 ± 1.5 nM
- IC50 (MOR [2]; [7]): 42 nM and 41.6 nM
- higher agonist activity at DOR compared to MOR (functional assays) (DOR [3]): 21 times
- IC50 (DOR [3]; [8]): 1.9 nM and 1.96 nM
- Ki (hNK1): 1 nM
- Ki^hNK1/Ki^rNK1 (hNK1): 1/33
- half-life (in vitro): > 24 h
- maximal level of antinociception (% antinociception) ([6]; 0.1 μg i.t.): approximately 70%
- tail flick latencies (TFLs) ([6]; 0.1 μg in 5 μl, i.t., 60 min after injection): significantly higher than vehicle-treated mice and baseline values

Structure (SMILES): CC(C)C[C@H](NC(=O)[C@@H]1CCCN1C(=O)CNC(=O)[C@H](Cc1ccccc1)N(C)C(=O)CNC(=O)[C@@H](C)NC(=O)[C@@H](N)Cc1ccc(O)cc1)C(=O)N[C@@H](Cc1c[nH]c2ccccc12)C(=O)NCc1cc(C(F)(F)F)cc(C(F)(F)F)c1 [AKG113, H-Tyr-D-Ala-Gly-NMePhe-Gly-Pro-Leu-Trp-NH-Bn(3′,5′-(CF3)2)] (H-Y[dA]G[NMeF]GPLW-{NH(3,5-(CF3)2-benzyl)})
- Kb (NK1R; [10]): 14.9 ± 2.9 nM
- GPI/LMMP (NK1R) Agonist (NK1R): None at 100 nM
- Ki (MOR [1]): 3 nM
- binding selectivity for MOR over DOR (MOR [1]): 15 times
- Log[IC50±] (μ) (MOR [1]): −8.23 ± 0.03
- Ki^μ/Ki^δ (MOR [1]): 1/15
- Ki (rNK1): 60 nM
- GPI/MVD IC50 ratio (MOR [2]): 2/1
- IC50 (MOR [2]; [7]): 79.2 nM
- IC50 (DOR [3]; [8]): 38.7 ± 9.69 nM
- Ki^hNK1/Ki^rNK1 (hNK1): 1/4
- IC50 (DOR [4]): 100 nM
- Ki (DOR [4]): 46 nM

Structure (SMILES): CC(C)C[C@H](NC(=O)[C@@H]1CCCN1C(=O)CNC(=O)[C@H](Cc1ccc(F)cc1)NC(=O)CNC(=O)[C@@H](C)NC(=O)[C@@H](N)Cc1ccc(O)cc1)C(=O)N[C@@H](Cc1c[nH]c2ccccc12)C(=O)NCc1cc(C(F)(F)F)cc(C(F)(F)F)c1 [AKG130, H-Tyr-D-Ala-Gly-Phe(4-F)-Gly-Pro-Leu-Trp-NH-Bn(3′,5′-(CF3)2)] (H-Y[dA]G[Phe(4-F)]GPLW-{NH(3,5-(CF3)2-benzyl)})
- Kb (NK1R; [10]): 11 nM and 10.6 nM
- GPI/LMMP (NK1R) Agonist (NK1R): None at 300 nM
- Ki (MOR [1]): 9 nM
- Log[IC50±] (μ) (MOR [1]): −7.69 ± 0.06
- Ki^μ/Ki^δ (MOR [1]): 2/1
- Ki (rNK1): 72 nM
- IC50 (MOR [2]; [7]): 340 nM and 339 nM
- IC50 (DOR [3]; [8]): 11.9 ± 1.56 nM
- Ki (hNK1): 1.54 nM
- Ki^hNK1/Ki^rNK1 (hNK1): 1/47
- IC50 (DOR [4]): 11 nM
- Ki (DOR [4]): 5 nM

Structure (SMILES): CC(C)C[C@H](NC(=O)[C@@H]1CCCN1C(=O)CNC(=O)[C@H](CO)NC(=O)[C@H](Cc1ccccc1)N(C)C(=O)CNC(=O)[C@@H](C)NC(=O)[C@@H](N)Cc1ccc(O)cc1)C(=O)N[C@@H](Cc1c[nH]c2ccccc12)C(=O)NCc1cc(C(F)(F)F)cc(C(F)(F)F)c1 [AKG-CRA-136] (H-Y[dA]G[NMeF]SGPLW-{NH(3,5-(CF3)2-benzyl)})
- Kb (NK1R; [10]): 27.6 ± 2.9 nM
- GPI/LMMP (NK1R) Agonist (NK1R): None at 100 nM
- Ki (MOR [1]): 3 nM
- Log[IC50±] (μ) (MOR [1]): −8.07 ± 0.18
- Ki^μ/Ki^δ (MOR [1]): 1/9
- Ki (rNK1): 156 ± 2.33 nM
- GPI/MVD IC50 ratio (MOR [2]): 5/1
- IC50 (MOR [2]; [11]): 108 ± 44.8 nM
- IC50 (DOR [3]; [8]): 22.6 ± 2.07 nM
- Ki (hNK1): 9.23 ± 1.38 nM
- Ki^hNK1/Ki^rNK1 (hNK1): 1/17
- IC50 (DOR [4]): 85.1 nM
- Ki (DOR [4]): 38 nM

Structure (SMILES): CC(C)C[C@H](NC(=O)[C@@H]1CCCN1C(=O)c1ccc(NC(=O)[C@H](Cc2ccccc2)N(C)C(=O)CNC(=O)[C@@H](C)NC(=O)[C@@H](N)Cc2ccc(O)cc2)cc1)C(=O)N[C@@H](Cc1c[nH]c2ccccc12)C(=O)NCc1cc(C(F)(F)F)cc(C(F)(F)F)c1 [AKG176, H-Tyr-D-Ala-Gly-NMePhe-4-Abz-Pro-Leu-Trp-NH-Bn(3′,5′-(CF3)2)]
- Kb (NK1R): 117 ± 31.4 nM
- GPI/LMMP (NK1R) Agonist (NK1R): None at 300 nM
- Ki (MOR [1]): 1 nM
- Log[IC50±] (μ) (MOR [1]): −8.69 ± 0.24
- Ki^μ/Ki^δ (MOR [1]): 1/82
- Ki (rNK1): 74 nM
- GPI/MVD IC50 ratio (MOR [2]): 2/1
- IC50 (MOR [2]; [7]): 40.8 ± 8 nM
- IC50 (DOR [3]): 22.8 ± 5.53 nM
- Ki (hNK1): 5.3 nM
- Ki^hNK1/Ki^rNK1 (hNK1): 1/19
- IC50 (DOR [4]): 182 nM
- Ki (DOR [4]): 70 nM

Structure (SMILES): CSCC[C@H](NC(=O)[C@H](Cc1ccccc1)NC(=O)CNC(=O)[C@@H](C)NC(=O)[C@@H](N)Cc1c(C)cc(O)cc1C)C(=O)N1CCC[C@H]1C(=O)N[C@@H](CC(C)C)C(=O)N[C@@H](Cc1c[nH]c2ccccc12)C(=O)NCc1cc(C(F)(F)F)cc(C(F)(F)F)c1 [TY032, H-Dmt-D-Ala-Gly-Phe-Met-Pro-Leu-Trp-NH-Bn(3′,5′-(CF3)2), reference compound]
- half-life (in vitro): > 6 h

Structure (SMILES): Cc1cc(O)cc(C)c1C[C@H](N)C(=O)N[C@H](C)C(=O)NCC(=O)N(C)[C@@H](Cc1ccccc1)C(=O)N[C@@H](CO)C(=O)N1CCC[C@H]1C(=O)N[C@@H](CC(C)C)C(=O)N[C@@H](Cc1c[nH]c2ccccc12)C(=O)NCc1cc(C(F)(F)F)cc(C(F)(F)F)c1 [AKG132] (H-[Dmt][dA]G[NMeF]SPLW-{NH(3,5-(CF3)2-benzyl)})
- Kb (NK1R; [10]): 19.8 ± 2.9 nM
- GPI/LMMP (NK1R) Agonist (NK1R): None at 30 nM
- Ki (MOR [1]): 0.4 nM
- Log[IC50±] (μ) (MOR [1]): −9.03 ± 0.06
- Ki^μ/Ki^δ (MOR [1]): 1/5
- Ki (rNK1): 36 nM
- IC50 (MOR [2]; [7]): 43 nM
- IC50 (MOR [2]; [11]): 42.6 ± 6 nM
- IC50 (DOR [3]; [8]): 7.66 ± 2.03 nM
- Ki (hNK1): 5.6 nM and 5.61 nM
- Ki^hNK1/Ki^rNK1 (hNK1): 1/6
- IC50 (DOR [4]): 5.25 nM
- Ki (DOR [4]): 2 nM
